Measured values taken from PMC10848769, “Tartrolon E, a secondary metabolite of a marine symbiotic bacterium, is a potent inhibitor of asexual and sexual Plasmodium falciparum” (Antimicrobial Agents and Chemotherapy, 2024).
Like-named read-outs stand apart in the source and are kept apart here.

Tests used:
[1] = system: human liver cell line HepG2; experiment: In vitro cytotoxicity assay; assay type: cell-based; conditions: for EC50: Homo sapiens
Experimental: (§1) In preliminary experiments to evaluate cytotoxicity to mammalian cells, the murine leukemia L1210 cell line and the human liver cell line HepG2 were grown under identical conditions alongside Pf 3D7. These were treated with TrtE, the chemotherapeutic methotrexate, and DSM265, an inhibitor of parasite dihydroorotate dehydrogenase ([19]).

[2] = system: diverse panel of P. falciparum clones; experiment: Standard growth inhibition assays, whole panel; assay type: cell-based, Plasmodium falciparum; conditions: including two artemisinin-resistant clones from Western Cambodia
Experimental: (§2) A diverse panel of P. falciparum clones, collected from four continents with varying genetic backgrounds and well-characterized susceptibilities to novel and existing antimalarials, was treated with TrtE and DHA in standard growth inhibition assays. […] Additional studies are needed to determine whether there is any similarity in mechanism between TrtE and DHA.

[3] = system: P. falciparum 3D7 asexual blood stages; experiment: Standard 72-hour inhibitor-response (parasite proliferation) assay; assay type: cell-based; conditions: Plasmodium falciparum; 3D7, 72-hour assay; read-out: 3D7 EC50
[4] = system: P. falciparum NF54 oocyst development in Anopheles dirus mosquitoes; experiment: Mosquito infectivity assay (standard membrane feeding, oocyst count); assay type: in vivo, Plasmodium falciparum; conditions: 100 nM TrtE on late-stage gametocytes, fed to Anopheles dirus, oocysts counted after 9 days, four independent experiments, P = 0.016
Experimental: (§3) Gametocytes of Pf NF54, the competent gametocyte-producing clone, were treated with TrtE as previously described ([15], [16]). […] To validate the in vitro gametocytocidal activity of TrtE, mosquito infectivity assays were conducted. […] Oocyst development in mosquitoes represents a significant bottleneck in the life cycle of Plasmodium spp. where transmission can be efficiently interrupted ([18]).
Fig 4 TrtE inhibition of oocyst development in mosquitoes. Late-stage Pf NF54 gametocytes were incubated with 100 nM TrtE, the approximate gametocidal EC50, or left untreated. Following incubation and development to stage V, the cultures were fed to female Anopheles dirus mosquitoes using standard membrane feeding techniques. After 9 days, the mosquitoes were dissected, and oocysts were stained and counted. The infection rate was measured as the ratio of mosquitoes with one or more oocysts to the number of dissected mosquitoes. ^*P < 0.05.

[5] = system: Pf 3D7; experiment: Parasite growth alongside mammalian cytotoxicity assays; assay type: cell-based; conditions: Plasmodium falciparum; 3D7, grown under identical conditions alongside mammalian cells; read-out: EC50 (µM) (95% CI) 3D7
Experimental: as §1

[6] = system: P. falciparum clone 3D7; experiment: Standard growth inhibition assay, Pf clone panel; assay type: cell-based; conditions: Plasmodium falciparum; clone 3D7, Netherlands; read-out: EC50 (nM) (95% CI)
Experimental: as §2

[7] = system: P. falciparum clone IPC 5202; experiment: Standard growth inhibition assay, Pf clone panel; assay type: cell-based; conditions: Plasmodium falciparum; clone IPC 5202, Battambang, Cambodia; read-out: EC50 (nM) (95% CI)
Experimental: as §2

[8] = system: P. falciparum clone Dd2; experiment: Standard growth inhibition assay, Pf clone panel; assay type: cell-based; conditions: Plasmodium falciparum, DD2, read-out: EC50 (nM) (95% CI)
Experimental: as §2

[9] = system: P. falciparum clone GMC1; experiment: Standard growth inhibition assay, Pf clone panel; assay type: cell-based; conditions: Plasmodium falciparum; clone GMC1, Goa, India; read-out: EC50 (nM) (95% CI)
Experimental: as §2

[10] = system: P. falciparum clone 7G8; experiment: Standard growth inhibition assay, Pf clone panel; assay type: cell-based; conditions: Plasmodium falciparum; clone 7G8, Brazil; read-out: EC50 (nM) (95% CI)
Experimental: as §2

[11] = system: P. falciparum clone V1/S; experiment: Standard growth inhibition assay, Pf clone panel; assay type: cell-based; conditions: Plasmodium falciparum, Vietnam, read-out: EC50 (nM) (95% CI)
Experimental: as §2

[12] = system: P. falciparum clone D10 w/ yDHODH; experiment: Standard growth inhibition assay, Pf clone panel; assay type: cell-based; conditions: Plasmodium falciparum, D10, read-out: EC50 (nM) (95% CI)
Experimental: as §2

[13] = system: P. falciparum clone NF54; experiment: Standard growth inhibition assay, Pf clone panel; assay type: cell-based; conditions: Plasmodium falciparum; clone NF54, Netherlands; read-out: EC50 (nM) (95% CI)
Experimental: as §2

[14] = system: P. falciparum clone HB3; experiment: Standard growth inhibition assay, Pf clone panel; assay type: cell-based; conditions: Plasmodium falciparum; clone HB3, Honduras; read-out: EC50 (nM) (95% CI)
Experimental: as §2

[15] = system: P. falciparum clone IPC 3445; experiment: Standard growth inhibition assay, Pf clone panel; assay type: cell-based; conditions: Plasmodium falciparum; clone IPC 3445, Palin, Cambodia; read-out: EC50 (nM) (95% CI)
Experimental: as §2

[16] = system: P. falciparum clone TM90C2A; experiment: Standard growth inhibition assay, Pf clone panel; assay type: cell-based; conditions: Plasmodium falciparum, Thailand, read-out: EC50 (nM) (95% CI)
Experimental: as §2

[17] = system: P. falciparum clone D6; experiment: Standard growth inhibition assay, Pf clone panel; assay type: cell-based; conditions: Plasmodium falciparum; clone D6, Sierra Leone; read-out: EC50 (nM) (95% CI)
Experimental: as §2

[18] = system: murine leukemia L1210 cell line; experiment: In vitro cytotoxicity assay
Experimental: as §1

[19] = system: Pf NF54 late-stage gametocytes (stage III to stage V); experiment: Late-stage gametocyte viability assay (alamarBlue); assay type: cell-based; conditions: Plasmodium falciparum, 72 h, 3 days treatment, three independent experiments
Experimental: as §3
Fig 3 TrtE activity against gametocytes. Enriched, late-stage gametocytes were treated for 3 days with TrtE and then viability-tested with alamarBlue (Invitrogen) ([15], [16]). Three independent experiments (squares, triangles, and diamonds) determined the average EC50 to be 140 ± 42 nM.

[20] = system: asexual parasites; conditions: preliminary single-step selection, data not shown

C[C@@H]1CCC2CC(=O)C[C@@H](O)CC/C=C/C=C\CC[C@H](C)OC(=O)[C@@H]3O[B-]45O[C@@H](C(=O)O[C@@H](C)CC/C=C\C=C\CC[C@H](O)CC(=O)CC6CC[C@@H](C)[C@]3(O6)O4)[C@@]1(O2)O5 [Tartrolon E] was tested, and the “Selectivity index (EC50 of HepG2/EC50 3D7)” value ([1]; HepG2 vs 3D7) was 444, the EC50 ([1]; HepG2, read-out: EC50 (µM) (95% CI) HepG2) was 0.071 µM and the EC50 ([1]; HepG2, as printed in text, read-out: HepG2 EC50) was 0.07 µM. For the same molecule, the “Concentration inhibiting all clones of the panel” value [2] was “sub-nanomolar concentrations”, the EC50 [3] was 0.105 nM and the “Mosquito infection by P. falciparum (infection rate, oocysts)” value [4] was “significantly inhibited mosquito infection”. The EC50 [5] was 0.00016 µM, the EC50 [6] was 0.16 nM and the EC50 [7] was 0.81 nM. The EC50 [8] was 0.28 nM, the EC50 [9] was 0.26 nM and the EC50 [10] was 0.18 nM. For the same molecule, the EC50 [11] was 0.31 nM, the EC50 [12] was 0.19 nM and the EC50 [13] was 0.2 nM. The EC50 [14] was 0.13 nM, the EC50 [15] was 0.73 nM and the EC50 [16] was 0.16 nM. For the same molecule, the EC50 [17] was 0.14 nM, the “Concentration inhibiting L1210 growth” value ([18]; L1210) was “sub-micromolar concentrations” and the “Selectivity index (EC50 of L1210/EC50 3D7)” value ([18]; L1210 vs 3D7) was 1,438. For the same molecule, the EC50 ([18]; Mus musculus, L1210, read-out: EC50 (µM) (95% CI) L1210) was 0.23 µM, the EC50 [19] was 140 nM and the “Hurdle to resistance under drug pressure” value [20] was “high hurdles to resistance”.
